Laboratory results taken from publication PMC3898838, “Design, Synthesis, and Biological Evaluation of an Allosteric Inhibitor of HSET that Targets Cancer Cells with Supernumerary Centrosomes” (Chemistry & Biology, 2013).

System: N1E-115 cells
Assay: Time-lapse microscopy, mitotic fate
Format: cell-based, mouse
Method: Therefore, we interrogated cell division in N1E-115 cells using time-lapse imaging for further validation of target engagement. Treatment with 200 μM CW069 did indeed induce multipolar anaphase formation in N1E-115 cells (48%; Figure 5A) compared with the DMSO control (0%; Figure 5A). […] This is consistent with a previous report that catastrophic aneuploidy associated with multipolar divisions prompted cell death ([Kwon et al., 2008]). In order to corroborate selective inhibition of HSET by CW069 in cells, we treated HSET siRNA-depleted cells with 200 μM CW069 and compared them with DMSO/control siRNA-, DMSO/HSET siRNA-, and CW069/control siRNA-treated cells (Figure 5D).
Cells were synchronized in G2-M by incubation at 37°C and 5% CO2 for 24 hr with 9 μM of the CDK1 inhibitor RO-3306 (Merck). Cells were released by removal of the RO-3306 and four washings of 10 min each, at 37°C, with prewarmed culture media + 10% FBS. N1E-115 cells were transfected with siRNA (Supplemental Experimental Procedures) and imaged from 6 hr after transfection. Some RO-3306-synchronized cells were released with 200 μM CW069, 100 μM monastrol, or 0.2% DMSO, and imaging started immediately or 1 hr after treatment. Imaging was carried out for 24 hr, or for 4 hr in the case of the CW069/monastrol cotreatment. Imaging was conducted every 5 min in a humidified chamber with 37°C and 5% CO2, using a Nikon Eclipse TE2000-E microscope, and analyzed with NIS-Elements software (Nikon, Tokyo, Japan). The morphology of cells in mitosis and the mitotic fate (bipolar division, multipolar division, or cell death) were analyzed.

## O=C(O)c1cc(I)ccc1NC(=O)[C@H](Cc1ccccc1)NCc1ccccc1 [CW069]
N1E-115, 200 μM
  fate of daughter cells after aberrant divisions: the majority of daughter cells underwent apoptosis
N1E-115, 200 μM CW069, DMSO control 0% (Figure 5A)
  multipolar anaphase formation: 48%
N1E-115, siRNA plus 200 μM CW069 or DMSO, DMSO/control siRNA 11% (Figure 5D)
  multipolar anaphases: 57%
